Test system: 3T3-L1 adipocytes
Assay: Mouse cytokine antibody array of culture medium
Format: cell-based
Method: RAW 264 macrophages and 3T3-L1 preadipocytes (American Type Culture Collection) were incubated at a density of 8000 cells/cm2 (10 cm2 dish) and grown in Dulbecco's modified Eagle's medium (DMEM) containing 10% FBS and antibiotics (adipocyte medium) at 37° C. in 5% CO2 in air. Confluent 3T3-L1 preadipocytes were induced to differentiate with a standard differentiation medium consisting of DMEM-F10 (1:1, vol/vol) medium supplemented with 1% FBS, 1 μM dexamethasone, IBMX (0.5 mM) and antibiotics (1% Penicillin-Streptomycin). Preadipocytes were maintained in this differentiation medium for 3 days and subsequently cultured in adipocyte medium. Cultures were re-fed every 2-3 days to allow 90% cells to reach fully differentiation for 3T3-L1 adipocytes or grow to a confluence for RAW 264 before conducting chemical treatment.
Human adipocytes (Zen-Bio, Inc.), 3T3-L1 adipocytes, RAW264 macrophages were obtained and co-cultured by using transwell inserts with 0.4 μm porous membranes (Corning) to separate adipocytes and macrophages. All data are expressed as mean±SEM. Data were evaluated for statistical significance by analysis of one-way or two-way variance (ANOVA; means with different letter differ, p<0.05).
A TansSignal™ mouse cytokine antibody array kit (Panomics, Fremont, Calif.) was used to detect cytokine protein released in culture medium according to the manufacture's instruction. […]

Structure (SMILES): C=C1/C(=C\C=C2/CCC[C@]3(C)[C@@H]([C@H](C)CCCC(C)(C)O)CC[C@@H]23)C[C@@H](O)C[C@@H]1O [calcitriol, 1, 25-Dihydroxyvitamin D]
- effect on inflammatory cytokine production (co-culture of 3T3-L1 adipocytes with RAW264 macrophages): further stimulated inflammatory cytokine production
- effect on release of inflammatory cytokine proteins (differentiated 3T3-L1 adipocytes cultured alone): up-regulated production of multiple inflammatory cytokine proteins

Source: patent publication US20070092577A1, “Dietary calcium for reducing the production of reactive oxygen species” (University of Tennessee Research Foundation, priority 2005, published 2007)
